Details: 101.33 kPa, Crystal, Vacuum adiabatic calorimetry

O=C[C@H](O)[C@@H](O)[C@H](O)CO [D-xylose]
Details	molar entropy [J/K/mol]
0.5 K	0.0002783
1 K	0.0007579
1.5 K	0.001652
2 K	0.003197
2.5 K	0.005661
3 K	0.009356
3.5 K	0.01464
4 K	0.02194
4.5 K	0.0317
5 K	0.04448
5.5 K	0.06082
6 K	0.08137
6.5 K	0.1068
7 K	0.1377
7.5 K	0.1749
8 K	0.219
8.5 K	0.2706
9 K	0.3303
9.5 K	0.3987
10 K	0.4763
11 K	0.6598
12 K	0.8803
13 K	1.138
14 K	1.432
15 K	1.761
16 K	2.122
17 K	2.515
18 K	2.935
19 K	3.383
20 K	3.854
25 K	6.505
30 K	9.489
35 K	12.65
40 K	15.88
45 K	19.14
50 K	22.41
55 K	25.66
60 K	28.89
65 K	32.12
70 K	35.35
75 K	38.56
80 K	41.77
85 K	44.96
90 K	48.15
95 K	51.33
100 K	54.5
110 K	60.81
120 K	67.1
130 K	73.34
140 K	79.56
150 K	85.75
160 K	91.91
170 K	98.05
180 K	104.16
190 K	110.25
200 K	116.32
210 K	122.38
220 K	128.42
230 K	134.45
240 K	140.47
250 K	146.47
260 K	152.47
270 K	158.46
273.15 K	160.35
280 K	164.44
290 K	170.42
298.15 K	175.29
300 K	176.4
